Activity calls are given as the source filed them.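 The calls were made as follows: active = compounds giving half or more protection of infected cells from virus-caused growth loss, again on retest; inactive = the rest.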 Where a SMILES comes first, the peptide text is derived from it.
System: CEM cells HIV-1 protection, formazan growth assay
Assay: NCI AIDS Antiviral Assay
Conditions: for IC50: measured here: growth of uninfected CEM cells
Method in brief: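 Human CEM cells, uninfected and HIV-1-infected, exposed to five drug concentrations; growth measured by soluble formazan assay and scored as percent protection from infection, with protecting compounds retested.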

Row | SMILES | EC50 [µM] | IC50 [µM] | outcome
1 | Cc1cc2c(c(=O)o1)C1=S(SC(c3ccccc3)=C1)S2 (stereo not given) | 75.9 | > 200 | –
2 | NC(=S)NN/C=C(\C=Nc1ccccc1)[N+](=O)[O-] | > 355 | 178 | –
3 | Cc1cnc(NCCCN(C)C)c2c1[nH]c1ccc3ccccc3c12 | > 2 | 0.316 | –
4 | CCOC(=O)C(C(CC(=O)OC)NC(=O)OCc1ccccc1)C1(C)OCCO1 (stereo not given) | > 251 | > 251 | –
5 | CCCNC(=O)N(CCN(C)C)S(=O)(=O)c1ccc(Cl)cc1 | – | – | inactive
6 | COC(=O)CP(=O)(OCC(F)(F)F)OCC(F)(F)F | > 794 | 437 | –
7 | Cc1cccc(-c2nnc3s/c(=C\c4ccc5c(c4)OCO5)c(=O)n23)c1 | > 27.5 | > 27.5 | –
8 | CN(C)CCN1C(=O)N(CCN(C)C)c2c3cc(O)ccc3nc3c([N+](=O)[O-])ccc1c23 | > 200 | 2.34 | –
9 | Cc1cc(C)nc(NS(=O)(=O)c2ccc(NC(=O)c3ccc(Cl)c4c(Nc5ccc(S(=O)(=O)Nc6cc(C)on6)cc5)c5ccccc5nc34)cc2)n1 | > 46.8 | > 46.8 | –
10 | CC12CC3CC(C)(C1)CC(N=[N+]=[N-])(C3)C2 | > 91.2 | > 91.2 | –
11 | Cn1c2ccccc2c2cc(N3CCCC3)c3c(c21)C(=O)N(c1ccccc1)C3=O | > 200 | > 200 | –
12 | O=C1c2ccccc2C(=O)C1c1ccc2c(ccc3ccccc32)n1 | – | – | inactive
13 | CC(c1ccccc1)n1c2ccccc2c2c(N)ncnc21 (stereo not given) | > 200 | 17.8 | –
14 | Nc1nc(Cl)nc2c1ncn2C1CCC(COP(=O)(O)OP(=O)(O)OP(=O)(O)O)O1 (stereo not given) | – | – | active
15 | CC(=O)Nc1ccc(C2C(C(=O)Nc3ccccc3)=C(C)NC(C)=C2C(=O)Nc2ccccc2)cc1 | > 74.1 | > 74.1 | –
16 | CCN(CC)C(=S)N=Nc1c(O)[nH]c2ccccc12 | > 200 | 1.1 | –
17 | O=c1cnn(C2OC(C(O)CO)C(O)C2O)c(=O)[nH]1 (stereo not given) | – | – | inactive
18 | Cc1cc(C#N)c(Nc2c(C)cccc2[N+](=O)[O-])s1 | > 200 | 158 | –
19 | COc1ccccc1C1C(Cl)C(=O)N1n1cnc2ccccc2c1=O (stereo not given) | > 52.5 | > 52.5 | –
20 | CC1(C(=O)O)CCC(C(=O)O)C(C)(C)O1 (stereo not given) | > 200 | > 200 | –
21 | COC(=O)C(=O)C(C(=O)C(=O)Nc1cc(Cl)c(Cl)cc1Cl)c1nc2ccc([N+](=O)[O-])cc2[nH]c1=O (stereo not given) | > 457 | 95.5 | –
22 | Nc1c(Cl)cc(Cl)cc1C(=O)O | > 200 | 195 | –

Row | SMILES | EC50 [µM] | IC50 [µM] | outcome
23 | O=C1/C(=C/c2cccs2)NC(=S)N1CN1CCCC(CO)C1 (stereo not given) | > 200 | 44.7 | –
24 | Cc1cc(NS(=O)(=O)c2ccc(NC(=O)c3cccc4c(Nc5ccc(S(=O)(=O)N=C(N)N)cc5)c5ccccc5nc34)cc2)no1 | 52.5 | 53.7 | –
25 | O=C([O-])C(F)(F)F.[C-]#[O+].[C-]#[O+].[C-]#[O+].[C-]#[O+].[C-]#[O+].[Mn] | > 813 | 44.7 | –
26 | O=C(/C=C/c1ccc(O)cc1)CC(=O)/C=C/c1ccc(O)cc1 | > 200 | 9.55 | –
27 | C1=CC=C(N=P(c2ccccc2)(c2ccccc2)c2ccccc2)CC=C1 | – | – | inactive
28 | N=C(N)Cn1cnc2ccccc21 | > 5500 | 4680 | –
29 | O=S1(=O)O[C@H]2CCCC[C@H]2O1 | > 40.7 | > 40.7 | –
30 | COc1ccc2c(=O)c(O)c(-c3ccc(OC)c(OC)c3)oc2c1 | > 200 | > 200 | –
31 | COc1cc(C2SCC(=O)N2c2ccc(-c3ccc(-n4c(-c5ccccc5)nc5ccccc5c4=O)cc3)cc2)ccc1O (stereo not given) | > 200 | 67.6 | –
32 | CCOC(=O)c1ccc(/C=C/c2cccn2C(=O)OC(C)(C)C)[nH]1 | – | – | inactive
33 | COc1ccc(-c2c(O)c3cccc(-c4ccccc4)c3oc2=O)cc1 | > 200 | 93.3 | –
34 | COc1cc(C)cc2c(-c3ccc(O)c4c(OC)cc(C)cc34)ccc(O)c12 | > 100 | 2.95 | –
35 | O=C1c2ccccc2C(=O)N1n1c(Cc2ccc([N+](=O)[O-])cc2)n[nH]c1=O | > 200 | > 200 | –
36 | C=C(CN(C)C)C(=O)c1cc(C)ccc1C | > 200 | 11.2 | –
37 | COc1ccccc1CNCCCCCNCCCCCCCCCCNCCCCCNCc1ccccc1OC | > 200 | 28.8 | –
38 | O=C(/C=C/c1cccs1)c1ccsc1 | > 200 | 11.7 | –
39 | OCC(CO)C1c2cccc3ccc4cccc1c4c23 | – | – | inactive
40 | N=N/C(=C\c1c(O)[nH]c2ccccc12)c1ccccc1 | > 200 | 3.31 | –
41 | CCOC1CC2OC(=O)C1C=C2C(=O)OC (stereo not given) | – | – | inactive
42 | O=C(Cc1ccccc1)NN1C(=O)C(Cl)C1c1ccc([N+](=O)[O-])cc1 (stereo not given) | > 20 | > 20 | –
43 | CC(C)(N=NC(C)(C)C(=N)N)C(=N)N | > 200 | > 200 | –
44 | C#CC1(O)CCCCCCCCC2(CCCCCCCC1)OCCO2 | > 200 | 25.7 | –

Row | SMILES | EC50 [µM] | IC50 [µM] | outcome
45 | CC(=O)OC[C@]12[C@H](OC(C)=O)[C@H](OC(C)=O)[C@@H]3C(O)[C@@]14OC3(C)COC(=O)c1cccnc1CCC(C)C(=O)OC([C@H](OC(C)=O)[C@@H]2OC(=O)c1ccccc1)[C@]4(C)O (stereo not given in full) | > 30.2 | > 30.2 | –
46 | S=c1nc(COc2ccc(Cl)cc2Cl)[nH][nH]1 | > 67.6 | 51.3 | –
47 | Cc1cc(C)c2c(c1)CC1(Cc3c(ccc(C)c3C)C1=O)C2=O (stereo not given) | > 100 | > 100 | –
48 | CCC/C(=N\NC(=S)N1CC2CCC(CC2)C1)c1ccccn1 | > 6.76 | 0.148 | –
49 | COc1ccccc1N1C(=O)/C(=C\c2cc(OC)c(OC)c(OC)c2)SC1c1ccccc1 (stereo not given) | > 200 | 39.8 | –
50 | CC(=O)OCC1OC(n2c3c(cc(C#N)c2=S)CCC3)C(OC(C)=O)C(OC(C)=O)C1OC(C)=O (stereo not given) | > 200 | 102 | –
51 | CSC1SCC2C(=O)N(C)C(C(C)C)C(=O)OCC(NC(=O)c3cnc4ccccc4n3)C(=O)NC(C)C(=O)N(C)C1C(=O)N(C)C(C(C)C)C(=O)OCC(NC(=O)c1cnc3ccccc3n1)C(=O)NC(C)C(=O)N2C (stereo not given) | > 0.12 | 0.000355 | –
52 | COc1ccc(/C=C(\C#N)c2ccc([N+](=O)[O-])cc2)cc1OC | 102 | 759 | –
53 | O=[N+]([O-])c1cccc(S(=O)(=O)c2ccc(F)c([N+](=O)[O-])c2)c1 | > 200 | 0.501 | –
54 | O=C(c1ccc(Cl)cc1Cl)N(/N=C/C=C/c1ccccc1)c1nnc(-c2ccccc2)c(-c2ccccc2)n1 | > 13.2 | > 13.2 | –
55 | COc1cccc2c1C1(O)C2CCCC12OCCCO2 (stereo not given) | > 200 | > 200 | –
56 | CC(NNC(=S)N1CCN(c2ccccn2)CC1)c1cccc[n+]1[O-] (stereo not given) | > 67.6 | 0.195 | –
57 | CN(C(=O)c1ccc2c(c1)sc1c(=O)n(C)c3ccccc3c12)c1ccccc1 | > 200 | > 200 | –
58 | COc1ccc(C(O)/C(=C/n2ccnc2)c2ccccc2)cc1OC (stereo not given) | > 537 | > 537 | –
59 | CC(C)(NC(=O)C(C)(C)NC(=O)OCc1ccccc1)C(=O)O (HELM PEPTIDE1{[O=C(OCc1ccccc1)[*:2]].[Aib].[Aib]}$$$$V2.0) | > 200 | > 200 | –
60 | Nc1ccccc1C(=O)CCc1ccccc1C(=O)O | – | – | inactive
61 | CNc1ccc(C)cc1S(=O)(=O)c1ccccc1[N+](=O)[O-] | 0.832 | 16.6 | –
62 | OC(C1CO1)C(O)C1CO1 (stereo not given) | > 427 | 0.891 | –
63 | Brc1ccc2nncc(N3CC3)c2c1 | – | – | inactive
64 | O=C(/C=C/c1ccccc1)/C=C/c1ccccc1 | – | – | inactive
65 | CC(=O)OCC1OC(n2cnc3nc(Br)[nH]c(=O)c32)C(OC(C)=O)C1OC(C)=O (stereo not given) | 61.7 | > 200 | –
66 | CN(C)C=Nc1ccn(CCO)c(=O)n1 | > 1200 | > 1200 | –

Row | SMILES | EC50 [µM] | IC50 [µM] | outcome
67 | CC(=O)c1cccc(NC(=O)C(=O)C(C(=O)NN)c2ccccc2)c1 (stereo not given) | > 55 | > 55 | –
68 | Cc1ccc2c(c1C)C(=O)C1(C2)Cc2ccc3c(c2C1=O)CCC3 (stereo not given) | > 100 | > 100 | –
69 | CN(C)CCNC(=O)c1cc([N+](=O)[O-])cc2c1Oc1ccccc1O2 | > 200 | 10.5 | –
70 | O=C1CC[C@@H](S(=O)(=O)c2ccccc2)[C@H](/C=C/c2ccccc2)O1 | – | – | inactive
71 | Cc1cccc(N2C(=O)C3c4[nH]c5ccccc5c4C4CCC(C(C)(C)C)CC4C3C2=O)c1 (stereo not given) | > 200 | 38.9 | –
72 | CCN(CC)CCC(=O)N1CCc2c([nH]c3ccccc23)C1c1cccnc1 (stereo not given) | > 95.5 | > 95.5 | –
73 | COC(=O)C1OC(OC2=C(c3ccc(OC)cc3)C(=O)C(OC3OC(C(=O)OC)C(OC(C)=O)C(OC(C)=O)C3OC(C)=O)=C(c3ccc(OC)cc3)C2=O)C(OC(C)=O)C(OC(C)=O)C1OC(C)=O (stereo not given) | > 28.8 | 4.57 | –
74 | Cc1cc(C)n(CCNCCn2nc(C)cc2C)n1 | – | – | inactive
75 | CCCCCCCC(=O)NCC(O)CNC(=O)CCCCCCC | – | – | inactive
76 | C=C1C(=O)[C@@]23CC1C(O)[C@@H](OC(C)=O)[C@@H]2C1(C)C(OC(C)=O)C[C@@H](OC(C)=O)C(C)(C)[C@@H]1C[C@H]3OC(C)=O (stereo not given in full) | > 200 | 0.851 | –
77 | CCOC(=O)NP(=O)(NC(=O)OCC)NC(=O)OCC | – | – | inactive
78 | CC1(C)CC(=O)C2=C(C1)OC1=C(C(=O)CC(C)(C)C1)C2CC(c1ccccc1)c1ccc(O)c(O)c1O (stereo not given) | > 200 | 8.51 | –
79 | CC(C)(C)C(=O)OCC1CCC[N+]2(C)CCCCC12 (stereo not given) | > 200 | > 200 | –
80 | NC(=O)C(=CN1CC(=O)NC1=S)C(N)=O | > 200 | > 200 | –
81 | C=C1CN(S(=O)(=O)c2ccc(C)cc2)CCCN(CC(C)(C)C)CCCN(S(=O)(=O)c2ccc(C)cc2)C1 | > 200 | 10.5 | –
82 | COC(=O)c1cc(=O)c2scc(C)[n+]2[nH]1 | > 955 | > 955 | –
83 | CCOC(=O)C(C)(C)Oc1ccc2c(-c3ccccc3)cc(=O)oc2c1 | > 20.4 | > 20.4 | –
84 | CCOC1c2cc(OC)c(OC)cc2-c2ccc3ccccc3c2N1C (stereo not given) | > 74.1 | 10.2 | –
85 | CCC(C(=O)c1ccccc1)C(CCCC(=O)Nc1c(C)cccc1C)N=O (stereo not given) | > 661 | 355 | –
